Results on three compounds are retold here after US20110015278A1, “PHYTOL AS A CHOLESTEROL LOWERING AGENT” (priority 2008, published 2011).

One data set concerns 3T3-L1 cells. Particulars: 3T3-L1 cells (Schluter et al., 2002); cited from earlier work.
A further data set deals with hepatocytes. Particulars: EP 1177789; cited from earlier work.
Data set [1] deals with mouse teratogenesis models. Conditions: mouse teratogenesis models (Arnhold et al., 2002); cited from earlier work.
A further data set deals with T1, PPARα (Homo sapiens, UniProt Q07869).
T1 sequence (Q07869 1-468): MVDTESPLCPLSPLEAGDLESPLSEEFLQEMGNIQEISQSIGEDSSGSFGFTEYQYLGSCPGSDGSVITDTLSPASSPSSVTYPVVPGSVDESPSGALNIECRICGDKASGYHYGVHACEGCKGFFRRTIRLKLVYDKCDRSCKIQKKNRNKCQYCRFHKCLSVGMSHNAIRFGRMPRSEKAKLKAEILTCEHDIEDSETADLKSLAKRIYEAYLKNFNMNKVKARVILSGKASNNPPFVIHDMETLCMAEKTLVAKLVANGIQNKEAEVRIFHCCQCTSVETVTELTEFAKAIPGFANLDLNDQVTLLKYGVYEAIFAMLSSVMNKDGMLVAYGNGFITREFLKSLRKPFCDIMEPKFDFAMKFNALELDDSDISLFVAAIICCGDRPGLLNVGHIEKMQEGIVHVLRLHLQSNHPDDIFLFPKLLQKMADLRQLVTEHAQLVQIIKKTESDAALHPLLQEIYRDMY
Particulars: cited from earlier work.

For data set [2], the system named is RXR (retinoid X receptor). Particulars: cited from earlier work.
The test system of data set [3] is healthy pigs. In words: Phytol treatment healthy pigs, increasing dose, serum triglycerides (Example 3). It is filed as in vivo, pig. Particulars: vs corn oil control. Here is the method:
FIG. 3 is a graph showing the effect of increased dose of phytol in pigs. The pigs were treated with oral administration of 1.25; 2.5; 5 and 10 g phytol daily for two weeks, respectively.
Triglyceride lowering effect after oral administration of phytol was validated in serum from healthy pigs treated with phytol. Phytol (FIG. 3.; black circles) was administrated to pigs at 1.25, 2.5, 5 and 10 g phytol daily. Analysis was made in comparison with control (FIG. 3.; open circles) pigs given corn oil as control.

A further data set relates to adult mice. Particulars: cited from earlier work.
Data set [4] relates to healthy rats. In words: Phytol treatment healthy rats, serum triglycerides and cholesterol (Example 1). It counts as in vivo, rat. Conditions: 1 weight percentage phytol mixed in the food, after 4 days, vs untreated rats. Here is the method: FIG. 1 is a graph comparing the triglyceride and cholesterol lowering effect of phytol in rats. The rats were treated with oral administration of phytol at 125 mg daily.
Triglyceride and cholesterol lowering effect after oral administration of phytol was validated in serum from healthy rats treated with phytol. Phytol (FIG. 1; black bars) was administrated to rats at 1 weight percentage phytol mixed in the food. Analysis was made in comparison with control (FIG. 1; white bars) untreated rats.

The test system of data set [5] is rats. Particulars: rats fed 0.5% phytol in the diet for 15 months (Steinberg et al., 1966); cited from earlier work.
Data set [6] has as its system healthy rats. Briefly: Phytol treatment healthy rats, 400 mg every second day, serum cholesterol and LDL-cholesterol (Example 7). It is filed as in vivo, rat. Particulars: 400 mg phytol every second day, after three weeks, vs untreated rats. Here is the method:
FIG. 7 is a graph comparing the cholesterol and LDL-Cholesterol lowering effect of Phytol in rats. The rats were treated with oral administration of phytol at 400 mg every second day for three weeks.
Cholesterol and LDL-Cholesterol lowering effect after oral administration of phytol was validated in serum from healthy rats treated with phytol. Phytol (FIG. 7; black bars) was administrated to rats at 400 mg phytol administered every second day for three weeks. Analysis was made in comparison with control (FIG. 7; white bars) untreated rats.

The test system of the next data set is humans. Particulars: 10% concentration (Kligman, 1966; Kligman & Epstein, 1975); cited from earlier work.
The conditions of data set [7]: cited from earlier work.
The test system of data set [8] is healthy pigs. In words: Phytol treatment healthy pigs, serum triglycerides and cholesterol (Example 2). Particulars: 10 g phytol daily mixed in the food, after 1 wk, vs untreated pigs. It is filed as in vivo, pig. How it is done:
FIG. 2 is a graph comparing the triglyceride and cholesterol lowering effect of phytol in pigs. The pigs were treated with oral administration of phytol at 10 g daily.
Triglyceride and cholesterol lowering effect after oral administration of phytol was validated in serum from healthy pigs treated with phytol. Phytol (FIG. 2.; black bars) was administrated to pigs at 10 g phytol daily mixed in the food. Analysis was made in comparison with control (FIG. 2.; white bars) untreated pigs.

A further data set has as its system healthy mice. Briefly: Phytol treatment healthy mice, serum cholesterol and LDL-cholesterol (Example 6). It is filed as in vivo, mouse. Conditions: 1 weight percentage phytol in the food, after thirty days, vs untreated mice. How it is done:
FIG. 6 is a graph comparing the cholesterol and LDL-Cholesterol lowering effect of phytol in mice. The mice were treated with oral administration of phytol at 1% weight evenly distributed in powdered chow.
Cholesterol and LDL-Cholesterol lowering effect after oral administration of phytol was validated in serum from healthy mice treated with phytol. Phytol (FIG. 6; black bars) was administrated to mice at 1 weight percentage phytol mixed in the food for thirty days. Analysis was made in comparison with control (FIG. 6; white bars) untreated mice.

For data set [9] the following is noted: one Refsum's disease patient, 72 mg tritium labelled phytol orally after overnight fasting (Kahlke & Wagener, 1966); cited from earlier work.
Data set [10] relates to rats. Particulars: cited from earlier work.
A further data set concerns rabbits. Particulars: cited from earlier work.
Data set [11] has as its system healthy rats. Briefly: Phytol treatment healthy rats, serum cholesterol and LDL-cholesterol, thirty days (Example 5). It is filed as in vivo, rat. Conditions: 1 weight percentage phytol in the food. Here is the method: FIG. 5 is a graph comparing the cholesterol and LDL-Cholesterol lowering effect of phytol in rats. The rats were treated with oral administration of phytol at 1% weight evenly distributed in powdered chow.
Cholesterol and LDL-Cholesterol lowering effect after oral administration of phytol was validated in serum from healthy rats treated with phytol. Phytol (FIG. 5; black bars) was administrated to rats at 1 weight percentage phytol mixed in the food for thirty days. Analysis was made in comparison with control (FIG. 5; white bars) untreated rats.

For the next data set, the system named is obese (ob/ob) mice. Briefly: Phytol treatment obese (ob/ob) mice, serum cholesterol (Example 4). It counts as in vivo, mouse. Particulars: 0.75 weight percentage phytol mixed in the food, during 5 weeks, vs untreated mice, p<0.001. Here is the method: FIG. 4 is a graph comparing the cholesterol lowering effect of phytol in obese ob/ob mice. The mice were treated with oral administration of phytol 0.75% weight evenly distributed in powdered chow.
Cholesterol lowering effect after oral administration of phytol was validated in serum from obese (ob/ob) mice treated with phytol. Phytol (FIG. 4; black circles) was administrated to the mice at 0.75 weight percentage phytol mixed in the food. Analysis was made in comparison with control (FIG. 4; open circles) untreated mice.

For data set [12] the following is noted: cited from earlier work. The source holds these as a separate data set.
The conditions of data set [13]: phytol given as chlorophyll; cited from earlier work.
Setting [14] is: after three weeks of phytol feeding.
Setting [15] is: after ten days, vs untreated rats, p<0.0001.

Take `CC(C)CCCC(C)CCCC(C)CCCC(C)CC(=O)O` (stereo not drawn) [phytanic acid]: in the data set on 3T3-L1 cells, the “AP2 mRNA” value is “activates AP2 mRNA”. In the data set on hepatocytes, the “transcription of the genes for glucose transporters and glucokinase” value is “increase and stimulate the transcription”; the “uptake of glucose in hepatocytes” value is “increased uptake of glucose”. In addition, the “vitamin A (retinol) induced teratogenic effects” value in data set [1] is “able to prevent”. The “activation of PPARα in vitro (postulated)” value at PPARα is “activate”. Moreover, in data set [2] (Kitareewan et al., 1996), the “RXR (retinoid X receptor) activator” value is on record as “activator”. In addition, in data set [2] (in vitro), the “activation of RXR in vitro (postulated)” value is given as “activate”.
For the compound `C/C(=C\CO)CCCC(C)CCCC(C)CCCC(C)C` (stereo not drawn) [phytol, 3,7,11,15-Tetramethyl-hexadec-2-en-1-ol], the “serum levels of triglycerides” value in the data set with healthy pigs [3] (2.5 g phytol per day oral, p<0.05) is recorded as “significantly reduced”; in the data set with healthy pigs [3] (5 g phytol per day oral, p<0.01), “significantly reduced”; in the data set with healthy pigs [3] (10 g phytol per day oral, p<0.001), “significantly reduced”; in the data set with healthy rats [4] (p<0.05) it was “significantly reduced”; with healthy pigs [8] (p<0.01), “significantly reduced”. Also, the serum cholesterol levels result in the data set on adult mice (setting [14]) is “remained unaffected”. In addition, the serum triglyceride levels result with adult mice (setting [14]) was “decreased”. Also, in the data set with adult mice (enhanced supply of phytol in the diet (Van den Branden et al., 1986)), the hepatic peroxisomes result is on record as “proliferation of hepatic peroxisomes”. For the same compound, the “serum levels of cholesterol” value with healthy rats [4] (p<0.001), with healthy pigs [8] (p<0.05) and in the data set on obese (ob/ob) mice was “significantly reduced” throughout. In the data set with rats [5], the “growth inhibition or toxicity” value is listed as “No evidence of growth inhibition or toxicity”. For the same compound, the “serum LDL-cholesterol” value is reported as “significantly reduced” with healthy rats [6] (p<0.001), “significantly reduced” in the data set on healthy mice (p<0.01), “significantly reduced” with healthy rats [11] (setting [15]) and “even more reduced” in the data set with healthy rats [11] (after thirty days). In addition, the serum cholesterol result with healthy rats [6] (p<0.05), with healthy mice (p=0.05) and in the data set with healthy rats [11] (setting [15]) was “significantly reduced” in each case. Also, the irritation result with humans is reported as “no irritation”. Besides, the “capacity to absorb into the intestinal lymphatic” value in [7] (rat, oral administration (Baxter & Steinberg, 1967)) was at most 0.2 g phytol/kg bodyweight. Also, in [7] (rat, oral administration), the “time of transportation into the intestinal lymphatic after administration” value is at most 20 h. Further, the “absorption when mixed with bile salts prior to administration” value in data set [7] (rat, oral, phytol mixed with bile salts) is listed as “absorption increases”. Moreover, in data set [7] (rat, oral), the “orally administered phytol absorbed” value is “More than 50%”. The “share of absorbed phytol absorbed via the intestinal lymphatics” value in data set [7] (rat, oral) was “more than 70%”. Further, the absorption and degradation entry in data set [7] (rats fed 5% phytol (Mize et al., 1966)) is “capacity to rapidly absorb and degrade phytol”. In [7] (rats, oral), the “absorbed, of administered dose” value is 30-66 % of administered dose. Moreover, the “principal carriers of phytol in plasma” value in data set [9] is “Plasma cholesterol esters and triglycerides”. Further, in data set [1], the “vitamin A (retinol) induced teratogenic effects” value is “able to prevent”. For the same compound, the “acute oral LD50” value in the data set with rats [10] was “exceed 5 g/kg”. Besides, the “acute dermal LD50” value in the data set on rabbits is “exceed 5 g/kg”. In addition, the “serum and liver values of accumulated phytol after phytol is subtracted from the food” value in [12] (after withdrawal of dietary phytol) is recorded as “drops rapidly”. The “distribution to the livers” value in [12] (at the 1% level in the food) is reported as “no phytol was distributed to the livers”. The accumulation in tissues entry in data set [12] (dietary phytol at doses 1-5% in the food, rat, mouse, rabbit and chinchillas (Steinberg et al., 1966)) was “accumulation in both liver and serum”.
Regarding chlorophyll, the “absorption of phytol compared to when given as pure phytol” value in data set [13] is on record as “much lower”.
